Measurements taken from the supplement of paper PMC10307832.

Assays:
Experiment in all cases: relative viability (nuclei count vs DMSO), 5 days (fraction); higher = more cells survive
[1] = compound: C=CC(=O)N1CCC[C@@H](n2nc(-c3ccc(Oc4ccccc4)cc3)c3c(N)ncnc32)C1 [Ibrutinib] + CS(=O)(=O)N1CCN(Cc2cc3nc(-c4cccc5[nH]ncc45)nc(N4CCOCC4)c3s2)CC1 [Pictilisib] (partner 1 µM)
How it was run: (§1)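 A single step with final 0.05% Triton X-100, 1% formaldehyde and 1 ug/ml Hoechst fixed the cells and stained nuclei 5 days after treatment. Lung cancer cell lines in 1536-well plates had been treated by pin tool the day after seeding with one drug alone or a fixed anchor-drug dose plus five library-drug doses (not always all listed) in √10 steps, and nuclei were counted on 4× images. Relative viability is the ratio of nuclei in treated wells to nuclei in vehicle wells, taken as the median of duplicate plates.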

[2] = compound: C=CC(=O)N1CCC[C@@H](n2nc(-c3ccc(Oc4ccccc4)cc3)c3c(N)ncnc32)C1 [Ibrutinib] + Nc1ncn([C@H]2C[C@H](O)[C@@H](CO)O2)c(=O)n1 [Decitabine] (partner 2 µM)
How it was run: as §1

[3] = compound: C=CC(=O)Nc1cc(-n2c(=O)ccc3cnc4ccc(-c5ccc(NS(C)(=O)=O)cc5)cc4c32)ccc1C [BMX-IN-1] + CS(=O)(=O)N1CCN(Cc2cc3nc(-c4cccc5[nH]ncc45)nc(N4CCOCC4)c3s2)CC1 [Pictilisib] (partner 1 µM)
How it was run: as §1

[4] = compound: C=CCc1cccc(/C=N/NC(=O)CN2CCN(Cc3ccccc3)CC2)c1O [PAC-1] + CS(=O)(=O)N1CCN(Cc2cc3nc(-c4cccc5[nH]ncc45)nc(N4CCOCC4)c3s2)CC1 [Pictilisib] (partner 1 µM)
How it was run: as §1

Cell Line | relative viability ([1]; first compound 0.005 µM) | relative viability ([1]; first compound 0.01581 µM) | relative viability ([1]; first compound 0.05 µM) | relative viability ([1]; first compound 0.1581 µM) | relative viability ([1]; first compound 0.5 µM) | relative viability ([2]; first compound 0.005 µM) | relative viability ([2]; first compound 0.01581 µM) | relative viability ([2]; first compound 0.1581 µM) | relative viability ([2]; first compound 0.5 µM) | relative viability ([3]; first compound 0.02 µM) | relative viability ([3]; first compound 0.2 µM) | relative viability ([3]; first compound 0.6325 µM) | relative viability ([3]; first compound 2 µM) | relative viability ([4]; first compound 0.02 µM) | relative viability ([4]; first compound 0.06325 µM) | relative viability ([4]; first compound 0.2 µM) | relative viability ([4]; first compound 2 µM) | relative viability ([2]; first compound 0.05 µM)
H3255 | 0.389 | 0.397 | 0.263 | 0.415 | 0.14 | 0.575 | 0.532 | 0.636 | 0.261 | 0.437 | 0.461 | 0.592 | 0.488 | 0.454 | 0.455 | 0.448 | 0.471 | 
SW 1573 | 0.416 | 0.466 | 0.478 | 0.414 | 0.503 | 0.364 | 0.459 | 0.412 | 0.683 | 0.5 | 0.512 | 0.466 | 0.478 | 0.475 | 0.448 | 0.394 | 0.457 | 0.482
NCI-H1666 | 0.388 | 0.358 | 0.31 | 0.409 | 0.235 | 0.569 | 0.782 | 0.663 | 0.632 | 0.404 | 0.365 | 0.428 | 0.396 | 0.501 | 0.398 | 0.358 | 0.427 | 0.666
NCI-H1993 | 0.777 | 0.7 | 0.139 |  | 0.871 | 0.571 | 0.637 | 0.554 | 0.441 | 0.836 | 0.95 |  | 0.821 | 0.696 | 0.881 | 0.844 | 0.823 | 0.579
HCC-366 |  | 0.125 | 0.141 | 0.124 | 0.14 | 0.422 | 0.305 | 0.346 | 0.326 | 0.124 | 0.666 | 0.137 | 0.16 | 0.203 | 0.142 | 0.149 | 0.184 | 0.314
EMC-BAC-2 | 0.43 | 0.521 | 0.604 | 0.525 | 0.522 | 0.91 | 0.962 |  | 0.994 | 0.556 | 0.562 | 0.621 | 0.506 | 0.549 | 0.536 | 0.566 | 0.555 | 
NCI-H1975 | 0.264 | 0.271 | 0.234 | 0.313 | 0.105 | 0.414 | 0.354 | 0.373 | 0.177 | 0.285 | 0.291 | 0.363 | 0.287 | 0.281 | 0.304 | 0.308 | 0.303 | 0.379
NCI-H1944 | 0.305 | 0.334 | 0.308 | 0.317 | 0.316 | 0.426 | 0.363 | 0.433 | 0.372 | 0.386 | 0.352 | 0.387 | 0.336 | 0.3 | 0.345 | 0.323 | 0.33 | 0.413
